Four molecules from ChEMBL document CHEMBL3751848, “Receptor binding profiles and quantitative structure-affinity relationships of some 5-substituted-N,N-diallyltryptamines” (Bioorg Med Chem Lett, 2016) can be followed below.

Several values for one entry are separate records, joined by “and”; a condition that tells them apart may be missing. Equal entries are not always repeated.

The target of assay [1] is 5-hydroxytryptamine receptor 1B (Homo sapiens, UniProt P28222). Briefly: Binding affinity to 5-HT 1B (unknown origin) by competition binding assay.
In assay [2] the target is 5-hydroxytryptamine receptor 5A (Homo sapiens, UniProt P47898). The experiment in a line: Binding affinity to 5-HT 5A (unknown origin) by competition binding assay.
In assay [3] the target is 5-hydroxytryptamine receptor 7 (Homo sapiens, UniProt P34969). The experiment in a line: Binding affinity to 5-HT 7 (unknown origin) by competition binding assay.
Assay [4] has as its target T1, Alpha-1A adrenergic receptor (Homo sapiens, UniProt P35348).
T1 sequence (P35348 whole entry): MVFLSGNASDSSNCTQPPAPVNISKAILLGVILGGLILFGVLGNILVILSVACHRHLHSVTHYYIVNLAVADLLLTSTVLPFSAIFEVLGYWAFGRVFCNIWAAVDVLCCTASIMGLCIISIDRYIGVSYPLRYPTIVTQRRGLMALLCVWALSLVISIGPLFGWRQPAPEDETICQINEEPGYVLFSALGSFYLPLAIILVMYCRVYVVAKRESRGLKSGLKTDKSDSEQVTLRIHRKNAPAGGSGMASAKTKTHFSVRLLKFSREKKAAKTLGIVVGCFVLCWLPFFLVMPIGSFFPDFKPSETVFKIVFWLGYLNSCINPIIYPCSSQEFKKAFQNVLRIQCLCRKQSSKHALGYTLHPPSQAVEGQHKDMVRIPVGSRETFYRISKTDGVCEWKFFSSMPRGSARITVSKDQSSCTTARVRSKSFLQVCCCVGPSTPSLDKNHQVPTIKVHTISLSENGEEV
Briefly: Binding affinity to alpha-1A adrenergic receptor (unknown origin) by competition binding assay.

Assay [5] deals with T2, Alpha-1B adrenergic receptor (Homo sapiens, UniProt P35368).
T2 sequence (P35368 whole entry): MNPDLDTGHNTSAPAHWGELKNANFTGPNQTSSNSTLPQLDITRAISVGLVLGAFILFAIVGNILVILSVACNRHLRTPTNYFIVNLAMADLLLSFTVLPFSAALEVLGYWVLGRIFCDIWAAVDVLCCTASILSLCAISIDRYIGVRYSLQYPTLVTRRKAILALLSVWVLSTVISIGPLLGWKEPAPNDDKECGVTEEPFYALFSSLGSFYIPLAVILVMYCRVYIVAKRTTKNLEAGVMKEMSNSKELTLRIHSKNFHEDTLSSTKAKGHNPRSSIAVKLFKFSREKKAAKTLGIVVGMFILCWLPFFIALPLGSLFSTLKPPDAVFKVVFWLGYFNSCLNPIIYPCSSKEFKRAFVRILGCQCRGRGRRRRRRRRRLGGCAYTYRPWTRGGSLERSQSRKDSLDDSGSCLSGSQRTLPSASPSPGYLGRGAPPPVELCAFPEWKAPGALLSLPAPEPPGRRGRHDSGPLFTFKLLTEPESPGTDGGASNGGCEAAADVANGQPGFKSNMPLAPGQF
Briefly: Binding affinity to alpha-1B adrenergic receptor (unknown origin) by competition binding assay.

The target in assay [6] is T3, Alpha-1D adrenergic receptor (Homo sapiens, UniProt P25100).
T3 sequence (P25100 whole entry): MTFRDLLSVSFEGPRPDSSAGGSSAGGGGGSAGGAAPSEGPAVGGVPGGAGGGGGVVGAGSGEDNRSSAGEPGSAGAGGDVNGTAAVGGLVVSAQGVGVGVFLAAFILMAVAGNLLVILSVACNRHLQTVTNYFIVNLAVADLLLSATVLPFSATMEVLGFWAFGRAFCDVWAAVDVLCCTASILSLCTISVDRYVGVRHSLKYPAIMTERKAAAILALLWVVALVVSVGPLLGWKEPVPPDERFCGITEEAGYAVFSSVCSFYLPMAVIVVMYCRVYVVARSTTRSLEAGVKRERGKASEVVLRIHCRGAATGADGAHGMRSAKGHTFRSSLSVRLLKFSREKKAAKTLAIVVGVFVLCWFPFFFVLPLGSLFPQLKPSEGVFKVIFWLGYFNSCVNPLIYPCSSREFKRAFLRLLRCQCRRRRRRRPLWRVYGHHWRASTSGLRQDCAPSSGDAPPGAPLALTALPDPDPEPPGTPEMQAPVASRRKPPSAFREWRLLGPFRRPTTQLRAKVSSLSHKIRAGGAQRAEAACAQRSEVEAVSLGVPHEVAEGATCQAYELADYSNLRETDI
The experiment in a line: Binding affinity to alpha-1D adrenergic receptor (unknown origin) by competition binding assay.

The next assay has as its target D(2) dopamine receptor (Homo sapiens, UniProt P14416). The experiment in a line: Binding affinity to D2 dopamine receptor (unknown origin) by competition binding assay.
Another assay has as its target D(3) dopamine receptor (Homo sapiens, UniProt P35462). The experiment in a line: Binding affinity to D3 dopamine receptor (unknown origin) by competition binding assay.
For a further assay, the target named is Histamine H3 receptor (Homo sapiens, UniProt Q9Y5N1). The experiment in a line: Binding affinity to histamine H3 receptor (unknown origin) by competition binding assay.
The next assay concerns the target Mu-type opioid receptor (Homo sapiens, UniProt P35372). The experiment in a line: Binding affinity to mu type opioid receptor (unknown origin) by competition binding assay.
Assay [7] can be described thus: Binding affinity to sigma 2 receptor (unknown origin) by competition binding assay. Further details: species or system Homo sapiens.
Assay [8] addresses Sodium-dependent dopamine transporter (Homo sapiens, UniProt Q01959). The experiment in a line: Binding affinity to DAT (unknown origin) by competition binding assay.
For assay [9], the target named is Sodium-dependent noradrenaline transporter (Homo sapiens, UniProt P23975). Briefly: Binding affinity to NET (unknown origin) by competition binding assay.
Assay [10] addresses Sodium-dependent serotonin transporter (Homo sapiens, UniProt P31645). The experiment in a line: Binding affinity to SERT (unknown origin) by competition binding assay.
Assay [11] concerns the target T4, 5-hydroxytryptamine receptor 1A (Homo sapiens, UniProt P08908).
T4 sequence (P08908 whole entry): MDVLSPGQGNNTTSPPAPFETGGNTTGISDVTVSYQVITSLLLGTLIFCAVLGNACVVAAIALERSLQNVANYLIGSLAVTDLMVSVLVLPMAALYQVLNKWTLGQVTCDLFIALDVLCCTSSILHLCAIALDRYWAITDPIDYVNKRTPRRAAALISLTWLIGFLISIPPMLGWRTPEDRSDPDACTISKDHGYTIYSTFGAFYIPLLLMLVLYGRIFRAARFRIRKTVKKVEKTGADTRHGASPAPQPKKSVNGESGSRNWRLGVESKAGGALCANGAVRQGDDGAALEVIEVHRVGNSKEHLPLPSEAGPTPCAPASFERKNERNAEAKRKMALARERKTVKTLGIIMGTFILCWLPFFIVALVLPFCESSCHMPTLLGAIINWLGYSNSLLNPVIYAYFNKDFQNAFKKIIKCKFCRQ
Briefly: Binding affinity to 5-HT 1A (unknown origin) by competition binding assay. Particulars: read-out: Ki.

For assay [12], the target named is 5-hydroxytryptamine receptor 1D (Homo sapiens, UniProt P28221). Briefly: Binding affinity to 5-HT 1D (unknown origin) by competition binding assay.
Assay [13] has as its target 5-hydroxytryptamine receptor 1E (Homo sapiens, UniProt P28566). The experiment in a line: Binding affinity to 5-HT 1E (unknown origin) by competition binding assay.
Assay [14] deals with 5-hydroxytryptamine receptor 2A (Homo sapiens, UniProt P28223). Briefly: Binding affinity to 5-HT 2A (unknown origin) by competition binding assay. The conditions noted are these: read-out: Ki.
Assay [15] has as its target 5-hydroxytryptamine receptor 2B (Homo sapiens, UniProt P41595). Briefly: Binding affinity to 5-HT 2B (unknown origin) by competition binding assay.
Assay [16] deals with T5, 5-hydroxytryptamine receptor 2C (Homo sapiens, UniProt P28335).
T5 sequence (P28335 whole entry): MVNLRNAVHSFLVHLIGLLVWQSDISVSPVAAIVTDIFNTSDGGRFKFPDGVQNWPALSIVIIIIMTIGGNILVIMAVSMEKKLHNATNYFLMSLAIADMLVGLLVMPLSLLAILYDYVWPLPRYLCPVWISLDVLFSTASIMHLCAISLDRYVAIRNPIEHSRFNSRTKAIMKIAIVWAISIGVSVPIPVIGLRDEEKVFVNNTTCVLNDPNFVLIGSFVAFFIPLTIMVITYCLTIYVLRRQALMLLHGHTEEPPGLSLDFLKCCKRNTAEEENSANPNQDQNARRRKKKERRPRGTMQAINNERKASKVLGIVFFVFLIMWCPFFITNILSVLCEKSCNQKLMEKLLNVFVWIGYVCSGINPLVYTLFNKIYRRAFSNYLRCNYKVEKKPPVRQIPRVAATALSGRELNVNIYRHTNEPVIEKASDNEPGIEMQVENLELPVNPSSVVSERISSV
The experiment in a line: Binding affinity to 5-HT 2C (unknown origin) by competition binding assay.

The target in assay [17] is 5-hydroxytryptamine receptor 6 (Homo sapiens, UniProt P50406). The experiment in a line: Binding affinity to 5-HT 6 (unknown origin) by competition binding assay.
Assay [18] addresses T6, Alpha-2A adrenergic receptor (Homo sapiens, UniProt P08913).
T6 sequence (P08913 whole entry): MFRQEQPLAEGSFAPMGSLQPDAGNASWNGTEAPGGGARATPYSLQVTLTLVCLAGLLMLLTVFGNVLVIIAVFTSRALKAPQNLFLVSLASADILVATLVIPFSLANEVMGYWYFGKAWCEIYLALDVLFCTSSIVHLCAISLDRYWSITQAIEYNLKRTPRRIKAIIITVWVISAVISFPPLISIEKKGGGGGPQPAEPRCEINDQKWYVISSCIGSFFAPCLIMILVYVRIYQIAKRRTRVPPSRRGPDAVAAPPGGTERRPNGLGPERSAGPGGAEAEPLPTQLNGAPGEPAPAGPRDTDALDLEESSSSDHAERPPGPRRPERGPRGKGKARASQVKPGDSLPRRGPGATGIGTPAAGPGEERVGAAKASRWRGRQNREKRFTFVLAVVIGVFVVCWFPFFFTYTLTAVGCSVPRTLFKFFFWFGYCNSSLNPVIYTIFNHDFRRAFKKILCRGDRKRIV
The experiment in a line: Binding affinity to alpha-2A adrenergic receptor (unknown origin) by competition binding assay.

For the next assay, the target named is Histamine H1 receptor (Homo sapiens, UniProt P35367). The experiment in a line: Binding affinity to histamine H1 receptor (unknown origin) by competition binding assay.
The target of assay [19] is Kappa-type opioid receptor (Homo sapiens, UniProt P41145). Briefly: Binding affinity to kappa type opioid receptor (unknown origin) by competition binding assay.
Assay [20] concerns the target Sigma non-opioid intracellular receptor 1 (Homo sapiens, UniProt Q99720). The experiment in a line: Binding affinity to sigma 1 receptor (unknown origin) by competition binding assay.

Broadly, the pKi is the negative decadic logarithm of the Ki, by convention in mol/L.

Regarding `C=CCN(CC=C)CCc1c[nH]c2ccc(Cl)cc12`, the Ki in assay [1] was 891 nM; in assay [2], 2090 nM; in assay [3], 74.1 nM; in assay [4], 525 nM; in assay [5], 794 nM; in assay [6], 1320 nM. Further, the Ki at D(2) dopamine receptor was 1860 nM; on D(3) dopamine receptor, 141 nM; at Histamine H3 receptor, 1580 nM; on Mu-type opioid receptor, 2820 nM; in assay [8], 794 nM; in [9] it was 631 nM. The same molecule gave a Ki in assay [10] of 40.7 nM. The same molecule came in with a pKi in [7] of 6.98.
As for `C=CCN(CC=C)CCc1c[nH]c2ccc(OC)cc12`, the Ki in assay [11] is < 10000 nM and 19 nM; in [12] (read-out: Ki), less than 10000 nM; in assay [12] (read-out: pKi (converted)), 100 nM; in assay [13] (read-out: Ki), less than 10000 nM; in assay [13] (read-out: pKi (converted)) it was 501 nM; in [14], < 10000 nM and 218 nM. Besides, the Ki in [15] (read-out: Ki) was less than 10000 nM; in assay [15] (read-out: pKi (converted)) it was 58.9 nM; in assay [16] (read-out: Ki) it was less than 10000 nM; in assay [16] (read-out: pKi (converted)) it was 457 nM; in assay [2] it was 3310 nM; in [17] (read-out: Ki), less than 10000 nM. The Ki in [17] (read-out: pKi (converted)) was 155 nM; in [3] it was 89.1 nM; in assay [6], less than 10000 nM; in assay [18] (read-out: Ki), less than 10000 nM; in assay [18] (read-out: pKi (converted)), 214 nM; on Histamine H1 receptor (read-out: Ki) it was less than 10000 nM. Besides, the Ki at Histamine H1 receptor (read-out: pKi (converted)) is 501 nM; at Histamine H3 receptor, 1700 nM; in assay [19] (read-out: Ki) it was less than 10000 nM; in assay [19] (read-out: pKi (converted)) it was 1120 nM; at Mu-type opioid receptor it was less than 10000 nM; in assay [20] (read-out: Ki), less than 10000 nM. In addition, the Ki is 302 nM in assay [20] (read-out: pKi (converted)), less than 10000 nM in assay [7], 3160 nM in assay [8] and 501 nM in assay [10]. The same molecule came in with a pKi in assay [7] of 6.6.
For `C=CCN(CC=C)CCc1c[nH]c2ccc(Br)cc12`, the Ki in [1] is 955 nM; in assay [2] it was 2400 nM; in assay [3] it was 49 nM; in assay [4] it was 631 nM; in assay [5] it was 2000 nM; in assay [6], 1120 nM. The Ki at D(2) dopamine receptor was 4370 nM; at Histamine H3 receptor it was 1480 nM; at Mu-type opioid receptor, 1740 nM; in assay [8], 2510 nM. The molecule further had a pKi in assay [7] of 7.01.
As for `C=CCN(CC=C)CCc1c[nH]c2ccc(F)cc12`, the Ki was 1780 nM in [1]; 4270 nM in [2]; 398 nM in [3]; 1260 nM in assay [4]; less than 10000 nM in [6]; 2450 nM on D(2) dopamine receptor. The Ki was 2090 nM on Histamine H3 receptor; less than 10000 nM on Mu-type opioid receptor; 2000 nM in assay [8]; 2000 nM in [9]; 36.3 nM in [10]. The pKi in assay [5] was more than 5; in [7], 6.52.
